# Measurements from patent US20210113650A1, “NANOMOLECULES FOR THE TREATMENT OF INFLAMMATORY BOWEL DISEASES” (Northwestern University, priority 2018, published 2021).
# *: point of attachment. Palmitoyl = CCCCCCCCCCCCCCCC(=O)*
# How the values were obtained:
# Type in all cases: in vivo, mouse
# [1] = tested on: SAMP1/YitFcsJ mice (Crohn's mice); assay: Cell/marker and cytokine expression in intestinal tissue after direct injection into inflamed intestinal lesions; conditions: 5 weeks post-surgery, compared to AIF-PAC and saline injected control animals
# Protocol: (§1) In order to treat inflammatory lesions that have formed in the intestinal tracts, the following was performed:
# (§2) Mice (10 weeks of age, female) were brought to the operating room where they were weighed, the abdomen shaved to remove hair, and given Buprenorphine (0.05 mg/kg) administered subcutaneously. At the time of surgery, anesthesia was induced with isoflurane (2%) with 02 and the mice were prepped with providine-iodine three times prior to initiating the operation. All mice received a 100 mg/kg dose of IP piperacillin/tazobactam IP followed by a midline abdominal incision (1.0-1.5 cm) made in the linea albea to gain access to the peritoneum. The intestines were then identified in the peritoneal cavity. Following intestinal exposure and identification of intestinal lesions, the anti-inflammatory peptide amphiphiles, [AIF-PA1 (treatment; 2 wt/%) or AIF-PAC (control; 2 wt/%)] or saline (control) were independently injected (20-40 μl) into multiple lesions of the several SAMP1/YitFcsJ mice. Following the surgical procedure, organs were relocated to their original anatomical positions. The abdomen was closed in 2 layers (muscle and skin) with 3-0 PDS suture. After recovery, they were placed back into cages with non-edible bedding and provided ad lib water and liquid diet for the first 7 post-operative days and then returned to ad lib chow. Animals were sacrificed at the 15 weeks of age. Animals were euthanized 5 weeks post-surgery and intestinal tissue was explanted, sectioned and stained with relevant inflammation based antibodies. Tissue samples were subsequently quantified, and the results are depicted in FIGS. 1-3.
# [2] = tested on: SAMP1/YitFcsJ mice (Crohn's mice); assay: Inflammatory intestinal lesion size after direct injection into inflamed intestinal lesions; conditions: 5 weeks post-injection, pre- versus post-injection, compared to AIF-PAC and saline injected control animals
# Protocol: as §1
# as §2, with “After recovery, they were placed back into cages with non-edible bedding and provided ad lib water and liquid diet for the first 7 post-operative days and then returned to ad lib chow. Animals were sacrificed at the 15 weeks of age. Animals were euthanized 5 weeks post-surgery and intestinal tissue was explanted, sectioned and stained with relevant inflammation based antibodies.” left out
# [3] = tested on: SAMP1/YitFcsJ mice (Crohn's mice); assay: Cell/marker and cytokine expression in intestinal tissue after systemic (tail vein) injection; conditions: 5 weeks, compared to AIFC-PA6/LDT and untreated control animals
# Protocol: as §1
# Mice (10 weeks of age, female; n=4-7 per group) were brought to the animal holding/surgical room where they were weighed. Animals were placed in a restrainer and independently injected with the aforementioned anti-inflammatory peptide amphiphiles, [AIF-PA1/LDT (treatment; 1 mM) or AIFC-PA6/LDT (control; 1 mM] or untreated/no treatment control group. Approximately 100 μl of solution was injected into the tail vein of the mice. Animals were sacrificed at the 15 weeks of age. Animals were euthanized 5 weeks post-surgery and intestinal tissue was explanted, sectioned and stained with relevant inflammation based antibodies and data was quantified. Gross tissue samples were examined for pathology. Quantified data and results are summarized in FIGS. 4-6.
substance,measurement,setting,value
C16-VVVAAAEEEMQMKKVLDS (Palmitoyl-VVVAAAEEEMQMKKVLDS-NH2; SMILES CCCCCCCCCCCCCCCC(=O)N[C@H](C(=O)N[C@H](C(=O)N[C@H](C(=O)N[C@@H](C)C(=O)N[C@@H](C)C(=O)N[C@@H](C)C(=O)N[C@@H](CCC(=O)O)C(=O)N[C@@H](CCC(=O)O)C(=O)N[C@@H](CCC(=O)O)C(=O)N[C@@H](CCSC)C(=O)N[C@@H](CCC(N)=O)C(=O)N[C@@H](CCSC)C(=O)N[C@@H](CCCCN)C(=O)N[C@@H](CCCCN)C(=O)N[C@H](C(=O)N[C@@H](CC(C)C)C(=O)N[C@@H](CC(=O)O)C(=O)N[C@@H](CO)C(N)=O)C(C)C)C(C)C)C(C)C)C(C)C) [AIF-PA1],CD68 (macrophages) expression,"[1]; 2 wt/%, 20-40 μl",statistically significant decrease
same,MAdCAM1 expression,"[1]; 2 wt/%, 20-40 μl",statistically significant decrease
same,anti-inflammatory cytokine IL-10 expression,"[1]; 2 wt/%, 20-40 μl",concomitant increase
same,mast cell tryptase (mast cells) expression,"[1]; 2 wt/%, 20-40 μl",statistically significant decrease
same,IFNγ expression,[1],statistically significant decrease
same,IL-1β expression,[1],statistically significant decrease
same,IL-13 expression,[1],statistically significant decrease
same,TNFα expression,[1],statistically significant decrease
same,change in intestinal lesion size,[2],statistically significant decrease
same,IFNγ expression,[3],statistically significant decrease
same,IL-1β expression,[3],statistically significant decrease
same,IL-13 expression,[3],statistically significant decrease
same,TNFα expression,[3],statistically significant decrease
